Patent publication US8648105B2, “Diarylthiohydantoin compounds” (The Regents of the University of California, priority 2006, dated 2014)
“Also recorded” adds a separate entry of the source.

What was measured:
[1] = tested on: AR-overexpressed LNCaP xenograft tumors; experiment: AR-overexpressed LNCaP xenograft model in castrated SCID mice; format: in vivo
Protocol: FIG. 7 is a graph of tumor size. AR overexpressing LNCaP cells were injected in the flanks of castrated SCID mice, subcutaneously. When tumors reached about 100 cubic mm, they were randomized into five groups. Each group had nine animals. […]. The tumors were measured three-dimensionally, width, length and depth, using a caliper.
FIG. 8 depicts experimental results of tumor size. At day 18, the animals were imaged via an optical CCD camera, 3 hours after last dose of treatment. A ROI was drawn over the tumor for luciferase activity measurement in photon/second. The right panels is a representation of the ROIs measurements.
Compounds of the invention are used to examine if the diaryihydantoin derivatives have in vivo effects on hormone refractory prostate cancer. First we examine this compound on xenograft tumors established from AR-overexpressed LNCaP cells. Engineered cells in Matrigel (Collaborative Biomedical) are injected subcutaneously into the flanks of the castrated male SCID mice. Tumor size is measured weekly in three dimensions using calipers. After xenograft tumors established (tumor size at least 40 mm^3), mice with tumors are randomized and treated with different doses of compounds orally once daily. The inhibitory effect on growth of AR-overexpressed LNCaP xenograft model is studied as follows. Mice with established LN-AR xenograft tumors are randomized and treated with indicated compounds orally once daily. Tumor size are measured by caliber.
All animal experiments were performed in compliance with the guidelines of the Animal Research Committee of the University of California at Los Angeles. Animals were bought from Taconic and maintained in a laminar flow tower in a defined flora colony. LNCaP-AR and LNCaP-vector cells were maintained in RPMI medium supplemented with 10% FBS. 10^6 cells in 100 μl of 1:1 Matrigel to RPMI medium were injected subcutaneously into the flanks of intact or castrated male SCID mice. Tumor size was measured weekly in three dimensions (length×width×depth) using calipers. Mice were randomized to treatment groups when tumor size reached approximately 100 mm^3. Drugs were given orally every day at 10 mg/kg and 50 mg/kg. To obtain pharmacodynamic readout, the animals were imaged via an optical CCD camera, 3 hours after last dose of the treatment. A ROI is drawn over the tumor for luciferase activity measurement in photon/second. The right panels were a representation of the ROIs measurements. […]

[2] = tested on: urogenital tract; experiment: Luciferase transgenic mice with testosterone pellet, urogenital tract weight and photon emission (FIG. 22); format: in vivo; settings: castrated mice with testosterone pellet, 10 mg/kg per day, 14 days
Protocol: FIG. 22 presents results of an experiment conducted with wild type nontransgenic mice (WT), castrated luciferase transgenic mice (Cast), and non-castrated luciferase transgenic mice (Intact). Data are shown for castrated luciferase transgenic mice treated with an implanted testosterone pellet yielding 12.5 mg per kilogram body weight with a 90 day release period (T/Cast), and data are shown for non-castrated luciferase transgenic mice treated with an implanted testosterone pellet yielding 12.5 mg per kilogram body weight with a 90 day release period (Intact+T). […]. (A) Urogenital tract weight at 14 days. (B) Photon emission rate at 14 days. In all cases, a hormone refractory disease state was not induced.
[…]. Moreover, the higher the dose, the lower the PSA level. […]. The weight and rate of photon emission increased for both intact and castrated mice.

[3] = tested on: LNCaP hormone sensitive xenograft; experiment: LNCaP hormone sensitive xenograft model
Protocol: Each set included 6 mice. The mice were treated with 10 mg/kg per day.

[4] = LogP; format: physicochemical
[5] = tested on: hormone refractory LAPC4 xenograft; experiment: Hormone refractory LAPC4 xenograft model; format: in vivo, mice
Protocol: Compounds of the invention are also tested in another xenograft model of hormone refractory prostate cancer, hormone refractory LAPC4. This model was established from passaging of hormone sensitive prostate cancer in castrated mice, which mimics the clinical progression of prostate cancer (2). […].

[6] = target: T1, AR (Homo sapiens, UniProt P10275); format: cell-based; set-up: Fold induction, AR response reporter; settings: LN/AR cell line, 1.25 to 10 μmol
T1 sequence (P10275 1-920): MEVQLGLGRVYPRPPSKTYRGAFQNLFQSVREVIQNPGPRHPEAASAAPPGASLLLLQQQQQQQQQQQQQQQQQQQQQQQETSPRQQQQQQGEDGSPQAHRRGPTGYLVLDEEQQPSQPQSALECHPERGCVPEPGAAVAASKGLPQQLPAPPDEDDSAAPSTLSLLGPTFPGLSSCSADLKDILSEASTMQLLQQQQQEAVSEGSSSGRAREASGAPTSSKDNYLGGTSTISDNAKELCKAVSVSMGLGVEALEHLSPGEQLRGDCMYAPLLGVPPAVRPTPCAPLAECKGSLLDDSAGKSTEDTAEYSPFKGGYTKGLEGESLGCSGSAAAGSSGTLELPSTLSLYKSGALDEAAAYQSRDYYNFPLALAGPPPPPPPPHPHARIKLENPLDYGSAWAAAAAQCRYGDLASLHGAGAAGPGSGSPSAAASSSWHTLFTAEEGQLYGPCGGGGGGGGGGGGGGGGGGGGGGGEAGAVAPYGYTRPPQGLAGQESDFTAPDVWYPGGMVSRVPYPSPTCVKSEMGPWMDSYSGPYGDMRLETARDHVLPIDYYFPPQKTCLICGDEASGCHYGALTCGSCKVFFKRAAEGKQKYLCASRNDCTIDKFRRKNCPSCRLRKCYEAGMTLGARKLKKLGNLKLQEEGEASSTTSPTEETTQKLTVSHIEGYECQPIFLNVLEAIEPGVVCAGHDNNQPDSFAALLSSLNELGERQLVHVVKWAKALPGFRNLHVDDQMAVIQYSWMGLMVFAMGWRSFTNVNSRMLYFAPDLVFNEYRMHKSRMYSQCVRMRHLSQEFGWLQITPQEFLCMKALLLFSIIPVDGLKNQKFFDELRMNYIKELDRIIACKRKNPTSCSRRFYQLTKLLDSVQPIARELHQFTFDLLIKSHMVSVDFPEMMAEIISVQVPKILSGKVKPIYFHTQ
Protocol: It is well established that PSA levels are indicators of AR activities in prostate cancer. […] The LNCaP-AR cells are a line of lymph node carcinoma of prostate cells transduced with a plasmid that makes express androgen receptors. […] After four days incubation, secreted PSA levels were assayed using PSA ELISA kits (American Qualex, San Clemente, Calif.)

[7] = tested on: 1AR cell line; experiment: Luciferase activity in the 1AR cell line; format: cell-based; settings: 1.25 to 10 μmol
From the text: (§1) NC4 differs from NC3 only in that an amino group is substituted for a hydroxyl group. […] The effect of NC3 and NC4 on luciferase activity in the 1AR cell line was studied by administering various compounds at concentrations ranging from 1.25 to 10 μmol and observing PSA levels. […] The effect of NC3 and NC4 on luciferase activity in the 4AR cell line was studied by administering various compounds at concentrations ranging from 1.25 to 10 μmol and observing luciferase activity. […] The effect of NC3 and NC4 on PSA levels in the LN/AR cell line was studied by administering various compounds at concentrations ranging from 1.25 to 10 μmol and observing luciferase activity.

[8] = tested on: 4AR cell line; experiment: Luciferase activity in the 4AR cell line; format: cell-based; settings: 1.25 to 10 μmol
From the text: as §1

CC(O)(CS(=O)(=O)c1ccc(F)cc1)C(=O)Nc1ccc(C#N)c(C(F)(F)F)c1 (stereo not shown) [Bicalutamide, N-[4-cyano-3-(trifluoromethyl)phenyl]-3-[(4-fluorophenyl)sulfonyl]-2-hydroxy-2-methylpropanamide, reference compound]
photon emission associated with luciferase activity ([1]; FIG. 8, day 18, relative to vehicle): remained about the same or increased
tumor growth / tumor volume ([1]; oral once daily, FIG. 7: 10 or 50 mg/kg, 18 days): did not inhibit growth; also recorded: tumors continued to grow
urogenital tract weight and photon emission [2]: decrease in weight and photon emission
rate of tumor growth (tumor volume) ([3]; 10 mg/kg per day, FIG. 6): slower than mice treated with vehicle solution
PSA levels ([3]; FIG. 16, relative to vehicle solution): stayed the same or increased
logP [4]: 2.91
growth and PSA expression [5]: did not inhibit growth and PSA expression

CC1(C)C(=O)N(c2ccc(C#N)c(C(F)(F)F)c2)C(=S)N1c1ccc(O)cc1 [NC3, 4-[3-(4-hydroxyphenyl)-4,4-dimethyl-5-oxo-2-thioxoimidazolidin-1-yl]-2-trifluoromethylbenzonitrile]
PSA level (comparison) [6]: less than the PSA level upon exposure to NC4
luciferase activity (comparison) [7]: less than the luciferase activity upon exposure to NC4
luciferase activity (comparison) [8]: less than the luciferase activity upon exposure to NC4
